Test results as given in patent US20110190280A1, “Thiazole And Oxazole Kinase Inhibitors” (priority 2007, published 2011).

How the values were obtained:
B-Raf = B-Raf (Homo sapiens, UniProt P15056); test: B-Raf Accelerated MEK ATPase assay (BRAMA); format: biochemical; conditions: BRAMA enzyme assay; class by pIC50; read-out: B-Raf Activity
Outline: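 B-Raf activity read as intrinsic MEK ATPase: catalytic activated RAF with non-phosphorylated MEK drives ADP formation, coupled through pyruvate kinase and lactate dehydrogenase to NADH oxidation, independent of ERK phosphorylation.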

EGFR = EGFR (Homo sapiens, UniProt P00533); test: EGFR kinase autophosphorylation assay (peptide phosphorylation, HTRF); format: biochemical; conditions: 0.8 nM EGFR, class by pIC50
Chain of EGFR (P00533 25-1210): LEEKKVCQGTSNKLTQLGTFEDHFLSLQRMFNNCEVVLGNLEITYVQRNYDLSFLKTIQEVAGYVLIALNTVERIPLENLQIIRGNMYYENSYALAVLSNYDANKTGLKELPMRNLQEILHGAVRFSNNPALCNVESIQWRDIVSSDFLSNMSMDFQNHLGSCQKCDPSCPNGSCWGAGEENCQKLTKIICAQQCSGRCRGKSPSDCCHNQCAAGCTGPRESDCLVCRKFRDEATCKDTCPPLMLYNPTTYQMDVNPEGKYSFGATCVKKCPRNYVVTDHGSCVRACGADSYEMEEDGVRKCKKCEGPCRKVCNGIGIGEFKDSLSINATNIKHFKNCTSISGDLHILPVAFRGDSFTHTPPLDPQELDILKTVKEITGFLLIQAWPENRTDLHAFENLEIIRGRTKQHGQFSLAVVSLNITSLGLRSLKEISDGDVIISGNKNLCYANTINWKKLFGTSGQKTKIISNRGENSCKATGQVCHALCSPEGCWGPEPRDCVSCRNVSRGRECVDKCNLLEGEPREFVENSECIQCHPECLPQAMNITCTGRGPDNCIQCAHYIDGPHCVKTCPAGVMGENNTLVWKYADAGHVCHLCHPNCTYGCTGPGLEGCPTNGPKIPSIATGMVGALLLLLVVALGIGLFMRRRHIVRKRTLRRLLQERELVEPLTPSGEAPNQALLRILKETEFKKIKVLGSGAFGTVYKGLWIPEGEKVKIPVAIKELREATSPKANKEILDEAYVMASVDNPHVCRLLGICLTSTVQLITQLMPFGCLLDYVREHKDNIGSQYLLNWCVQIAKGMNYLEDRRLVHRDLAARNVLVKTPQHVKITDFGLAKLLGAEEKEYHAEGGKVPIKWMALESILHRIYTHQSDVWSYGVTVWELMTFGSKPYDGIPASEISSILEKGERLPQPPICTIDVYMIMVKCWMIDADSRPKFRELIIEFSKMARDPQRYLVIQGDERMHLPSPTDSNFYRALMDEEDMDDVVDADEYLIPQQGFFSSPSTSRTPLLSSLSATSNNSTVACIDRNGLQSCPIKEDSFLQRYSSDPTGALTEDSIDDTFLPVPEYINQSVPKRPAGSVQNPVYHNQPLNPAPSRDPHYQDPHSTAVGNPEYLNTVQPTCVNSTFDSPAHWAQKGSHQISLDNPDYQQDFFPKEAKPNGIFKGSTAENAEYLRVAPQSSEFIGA
Description: (§1) A selection of compounds of the present invention were tested for inhibitory activity against EGFR and ErbB2 kinases in autophosphorylation assays.
(§2) The method measures the ability of the isolated enzyme to catalyse the transfer of the gamma-phosphate from ATP onto the tyrosine residue of a biotinylated synthetic peptide referenced “Peptide C” in Brignola, P. S., et al, (2002) J. Biol. Chem. 277(2):1576-1585. The extent of tyrosine phosphorylation was measured using an anti-phosphotyrosine antibody, and quantified by homogenous time-resolved fluorescence (HTRF).
(§3) Reactions were performed in black 384-well polystyrene flat-bottom plates in a final volume of 20 ul. Assays were performed by adding 10 μl of each of the following solutions, substrate Mix and enzyme mix: The Substrate mix contained 100 mM 3-[N-morpholino]propanesulfonic acid (MOPS) (pH 7.5), 2 mM MnCl2, 20 μM ATP, 0.01% Tween-20, 0.1 mg/mL (BSA), 0.8 uM peptide substrate, and 1 mM dithiothreitol. The enzyme mix contained 100 mM MOPS (pH7.5); 0.01% Tween-20; 0.1 mg/mL BSA, and either 0.8 nM EGFR, 10 nM ErbB2, or 1 nM ErbB4
(§4) The enzyme mix was added to the compound plates and the plates were incubated at 20° C. for 1 hour. The reactions were allowed to proceed for 90 minutes at 20° C. The reactions were then terminated by the addition of 20 μl 100 mM EDTA to each well. 40 μl/well of HTRF detection mix were added to the assay plates. The final concentrations of the detection reagents were: 100 mM HEPES (pH7.5), 0.1 mg/mL BSA, 15 nM streptavidin-labeled allophycocyanin (PerkinElmer), and 1 nM europium-labeled anti-phosphotyrosine antibody (PerkinElmer). Assay plates were left unsealed and were counted in a Wallac Multilabel Counter 1420 (PerkinElmer).
(§5) Compounds under analysis were dissolved in Me2SO to 1.0 mM and serially diluted 1 to 3 with Me2SO through twelve dilutions. 1 μl of each concentration was transferred to the corresponding well of an assay plate. This creates a final compound concentration range from 0.00027 to 47.6 μM.
(§6) The data for dose responses were plotted as % Inhibition calculated with the data reduction formula 100*(1−(U1−C2)/(C1−C2)) versus concentration of compound where U is the unknown value, C1 is the average control value obtained for 4.76% DMSO, and C2 is the average control value obtained for 0.035 M EDTA. Data were fitted with a curve described by:
(§7) where Vmax is the upper asymptote, Y2 is the Y intercept, and K is the IC50. The results for each compound were recorded as pIC50s, calculated as follows: […]
(§8) In the following table: • “+” indicates no pIC50 measurement greater than 6 against EGFR or ErbB2, • “++” indicates at least one pIC50 measurement greater than 6 against EGFR or ErbB2 but no measurement greater than pIC50 of 7; and • “+++” indicates at least one pIC50 measurement of greater than 7 against EGFR or ErbB2.

ErbB2 = ErbB2 (Homo sapiens, UniProt P04626); test: ErbB2 kinase autophosphorylation assay (peptide phosphorylation, HTRF); format: biochemical; conditions: 10 nM ErbB2, HTRF; class by pIC50
Chain of ErbB2 (P04626 23-1255): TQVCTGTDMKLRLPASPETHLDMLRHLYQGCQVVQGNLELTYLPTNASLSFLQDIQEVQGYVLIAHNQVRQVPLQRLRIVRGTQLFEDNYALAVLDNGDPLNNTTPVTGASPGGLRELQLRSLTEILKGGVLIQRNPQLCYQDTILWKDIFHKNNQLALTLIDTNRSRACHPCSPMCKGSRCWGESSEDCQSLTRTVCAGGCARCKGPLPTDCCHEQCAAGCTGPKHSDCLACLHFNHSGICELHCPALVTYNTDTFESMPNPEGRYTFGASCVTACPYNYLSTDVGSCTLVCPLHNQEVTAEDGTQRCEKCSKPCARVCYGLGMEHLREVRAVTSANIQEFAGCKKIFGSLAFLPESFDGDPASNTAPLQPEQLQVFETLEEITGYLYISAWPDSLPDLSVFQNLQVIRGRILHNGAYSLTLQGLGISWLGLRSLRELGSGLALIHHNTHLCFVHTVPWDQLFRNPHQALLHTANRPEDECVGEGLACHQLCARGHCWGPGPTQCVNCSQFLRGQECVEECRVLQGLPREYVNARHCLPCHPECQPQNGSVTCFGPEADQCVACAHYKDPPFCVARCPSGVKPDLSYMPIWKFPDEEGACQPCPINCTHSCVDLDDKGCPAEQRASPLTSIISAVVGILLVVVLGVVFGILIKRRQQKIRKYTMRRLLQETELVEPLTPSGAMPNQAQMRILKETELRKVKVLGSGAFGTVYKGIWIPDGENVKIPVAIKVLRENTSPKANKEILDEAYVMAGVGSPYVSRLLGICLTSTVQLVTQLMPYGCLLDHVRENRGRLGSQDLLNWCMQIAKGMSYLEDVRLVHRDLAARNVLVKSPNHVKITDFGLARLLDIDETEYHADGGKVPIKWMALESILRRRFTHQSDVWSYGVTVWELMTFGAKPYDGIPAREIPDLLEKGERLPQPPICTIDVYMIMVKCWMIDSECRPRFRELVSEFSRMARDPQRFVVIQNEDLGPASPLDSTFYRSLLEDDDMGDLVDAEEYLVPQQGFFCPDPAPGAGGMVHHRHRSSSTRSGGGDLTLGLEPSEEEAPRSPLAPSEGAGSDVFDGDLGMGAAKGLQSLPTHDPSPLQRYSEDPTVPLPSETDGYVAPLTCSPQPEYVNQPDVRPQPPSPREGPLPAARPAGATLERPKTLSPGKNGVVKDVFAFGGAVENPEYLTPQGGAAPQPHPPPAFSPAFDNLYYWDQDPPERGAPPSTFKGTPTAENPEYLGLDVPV
Description: as §1, §2, §3, §4, §5, §6, §7, §8

A375P tumor cells = test: Cell growth inhibition assay (CellTiter-Glo), A375P; conditions: Homo sapiens, 72 h, read-out: Activity in A375P Tumor Cells;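 note: total ATP luminescence used as proxy for cell number, serial threefold compound dilutions at 0.2% DMSO, growth inhibition expressed versus DMSO vehicle-treated wells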
HT-29 tumor cells = test: Cell growth inhibition assay (CellTiter-Glo), HT-29; conditions: Homo sapiens, HT-29, 72 h, read-out: Activity in HT-29 Tumor Cells;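 note: ATP content read by luminescence as proxy for cell number, growth inhibition versus DMSO vehicle wells, 0.2% DMSO final, nine serial threefold compound dilutions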
Description: (§9) Cell Growth Inhibition Assays Human colon tumor cells (Colo205) were cultured in RPMI (Mediatech 50-020-PB) containing 10% FBS and 1% penicillin-streptomycin. […] Human melanoma cancer cells (A375-F11S) were cultured in RPMI (Mediatech 50-020-PB) containing 10% FBS, 1% sodium pyruvate, and 1% penicillin-streptomycin. Human colon cancer cells (HT-29) were cultured in high glucose DMEM (Mediatech 50-013-PB) containing 10% FBS and 1% penicillin-streptomycin. Human melanoma cancer cells (SK-MEL-3) were cultured in McCoy's 5A (50-025-PB) containing 15% FBS, and 1% penicillin-streptomycin. All cell lines were maintained at 37° C. in a humidified 5% CO2, 95% air incubator.
(§10) The next day, compounds were diluted as follows: For 96-well assays, 13.5 μl of compound in DMSO were diluted using nine (9) serial 1:3 dilutions of 4.5 μl in 9 μl of DMSO. Medium (270 μl/well of RPMI with 10% FBS and 1% penicillin-streptomycin) was added to the plates. Aliquots (7 μl) were added to cells in the final assay giving a final DMSO concentration of 0.2%. For 384-well assays, 15 μl of compound in DMSO were diluted using nine (9) serial 1:3 dilutions of 5 μl in 10 μl of DMSO, followed by a further dilution of 5 μl of compound with 95 μl of medium, of which 2 μl are added to cells in the final assay giving a final DMSO concentration of 0.2%. Cells were incubated at 37° C., 5% CO2 for 3 days.
(§11) Total ATP was measured (as a surrogate estimate of cell number) using CellTiter-Glo® (Promega G7571) reagent. Briefly, plates were removed from the incubator and allowed to equilibrate to room temperature for 30 minutes. CellTiter-Glo® (25 μl or 55 μl for 384-well or 96-well assays, respectively) reagent was added to each well and plates were shaken on an orbital plate shaker for 2 minutes. Plates were incubated without shaking for a further 30 minutes and read on an LJL Analyst GT reader in luminometer mode with an integration time of 0.5 seconds per well. Percent inhibition of cell growth was calculated relative to DMSO vehicle-treated control wells.

Colo205 tumor cells = test: Cell growth inhibition assay (CellTiter-Glo), Colo205; conditions: Homo sapiens, COLO 205, 72 h, read-out: Activity in Colo205 Tumor Cells;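 note: growth measured via total ATP luminescence (CellTiter-Glo) as a proxy for cell number, inhibition expressed against DMSO-treated control wells, 3-day exposure at 0.2% final DMSO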
Description: as §9, §10, §11

SK-MEL-3 tumor cells = test: Cell growth inhibition assay (CellTiter-Glo), SK-MEL-3; conditions: Homo sapiens, SK-MEL3, 72 h, read-out: Activity in SK-MEL-3 Tumor Cells;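 note: human melanoma cells grown with compound for 3 days in 0.2% DMSO, total ATP read by luminescence as proxy for cell number, growth inhibition versus DMSO-treated wells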
Description: as §9, §10, §11

SK-MEL-28 tumor cells = test: Cell growth inhibition assay (CellTiter-Glo), SK-MEL-28; conditions: Homo sapiens, SK-MEL-28, 72 h, read-out: Activity in SK-MEL-28 Tumor Cells;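 note: luminescent total ATP as a proxy for cell number, threefold serial dilutions at 0.2% DMSO, percent growth inhibition versus DMSO vehicle control wells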

Chain of B-Raf (P15056 whole entry): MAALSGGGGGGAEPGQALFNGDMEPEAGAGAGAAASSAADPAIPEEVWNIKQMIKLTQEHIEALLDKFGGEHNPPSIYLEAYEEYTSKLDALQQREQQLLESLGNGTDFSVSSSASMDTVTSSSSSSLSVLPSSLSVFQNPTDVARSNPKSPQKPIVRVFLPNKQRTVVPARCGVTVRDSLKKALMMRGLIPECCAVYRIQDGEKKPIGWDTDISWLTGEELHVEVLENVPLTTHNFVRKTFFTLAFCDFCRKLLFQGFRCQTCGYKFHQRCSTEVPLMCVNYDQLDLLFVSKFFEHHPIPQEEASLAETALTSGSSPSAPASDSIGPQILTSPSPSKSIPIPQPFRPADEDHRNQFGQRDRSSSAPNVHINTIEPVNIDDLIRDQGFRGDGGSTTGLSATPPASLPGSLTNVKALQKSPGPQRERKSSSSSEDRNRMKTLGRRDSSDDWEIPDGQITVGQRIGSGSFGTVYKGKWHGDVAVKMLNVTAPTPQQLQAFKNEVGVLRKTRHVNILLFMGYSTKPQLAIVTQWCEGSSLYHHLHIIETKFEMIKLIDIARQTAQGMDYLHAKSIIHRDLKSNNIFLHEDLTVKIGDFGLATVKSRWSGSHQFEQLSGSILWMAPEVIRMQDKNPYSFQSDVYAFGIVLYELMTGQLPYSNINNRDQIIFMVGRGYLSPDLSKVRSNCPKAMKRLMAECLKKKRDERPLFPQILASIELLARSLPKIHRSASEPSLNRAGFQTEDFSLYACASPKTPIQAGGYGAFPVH

IC50 (B-Raf) [nM]	IC50 (EGFR) [nM]	IC50 (ErbB2) [nM]	IC50 (A375P tumor cells) [nM]	IC50 (HT-29 tumor cells) [nM]	IC50 (Colo205 tumor cells) [nM]	IC50 (SK-MEL-3 tumor cells) [nM]	IC50 (SK-MEL-28 tumor cells) [nM]	SMILES
< 100	> 1000	> 1000	< 500	< 500	< 500	< 500	< 500	CCNc1nc(-c2cc(OC)cc(OC)c2)c(-c2ccnc(Nc3ccc(N4CCN(C(C)=O)CC4)nc3)n2)s1 [Example 4, N-[6-(4-Acetyl-1-piperazinyl)-3-pyridinyl]-4-[4-[3,5-bis(methyloxy)phenyl]-2-(ethylamino)-1,3-thiazol-5-yl]-2-pyrimidinamine]
< 100	> 1000	> 1000	500 to 5000	< 500	< 500	< 500	< 500	CCNc1nc(-c2cc(OC)cc(OC)c2)c(-c2ccnc(Nc3ccc(N4CCOCC4)c(F)c3)n2)s1 [Example 7, 4-[4-[3,5-Bis(methyloxy)phenyl]-2-(ethylamino)-1,3-thiazol-5-yl]-N-[3-fluoro-4-(4-morpholinyl)phenyl]-2-pyrimidinamine]
< 100	> 1000	> 1000	< 500	< 500	< 500	< 500	< 500	CCNc1nc(-c2cc(OC)cc(OC)c2)c(-c2ccnc(Nc3ccc(OC4CCN(CCS(C)(=O)=O)CC4)c(F)c3)n2)s1 [Example 10, 4-[4-[3,5-Bis(methyloxy)phenyl]-2-(ethylamino)-1,3-thiazol-5-yl]-N-[3-fluoro-4-({1-[2-(methylsulfonyl)ethyl]-4-piperidinyl}oxy)phenyl]-2-pyrimidinamine]
< 100	> 1000	> 1000	< 500	< 500	< 500	< 500	< 500	CCNc1nc(-c2cc(C)cc(OC)c2)c(-c2ccnc(Nc3ccc(N4CCN(CCS(C)(=O)=O)CC4)c(F)c3)n2)s1 [Example 27, 4-{2-(Ethylamino)-4-[3-methyl-5-(methyloxy)phenyl]-1,3-thiazol-5-yl}-N-(3-fluoro-4-{4-[2-(methylsulfonyl)ethyl]-1-piperazinyl}phenyl)-2-pyrimidinamine]
< 100	> 1000	> 1000	< 500	< 500	< 500	< 500	< 500	CCNc1nc(-c2cc(C)cc(OC)c2)c(-c2ccnc(Nc3ccc(N4CCOCC4)c(F)c3)n2)s1 [Example 28, 4-{2-(Ethylamino)-4-[3-methyl-5-(methyloxy)phenyl]-1,3-thiazol-5-yl}-N-[3-fluoro-4-(4-morpholinyl)phenyl]-2-pyrimidinamine]
< 100	> 1000	> 1000	< 500	< 500	< 500	< 500	< 500	CCNc1nc(-c2cc(C)cc(OC)c2)c(-c2ccnc(Nc3ccc(N4CCN(CCF)CC4)c(F)c3)n2)s1 [Example 29, 4-{2-(Ethylamino)-4-[3-methyl-5-(methyloxy)phenyl]-1,3-thiazol-5-yl}-N-{3-fluoro-4-[4-(2-fluoroethyl)-1-piperazinyl]phenyl}-2-pyrimidinamine]
< 100	> 1000	> 1000	< 500	< 500	< 500	< 500	< 500	CCNc1nc(-c2cc(C)cc(OC)c2)c(-c2ccnc(Nc3ccc4c(c3)CCN4C(C)=O)n2)s1 [Example 30, 1-Acetyl-N-(4-{2-(ethylamino)-4-[3-methyl-5-(methyloxy)phenyl]-1,3-thiazol-5-yl}-2-pyrimidinyl)-2,3-dihydro-1H-indol-5-amine]
< 100	> 1000	> 1000	< 500	< 500	< 500	< 500	< 500	CCNc1nc(-c2cc(C)cc(OC)c2)c(-c2ccnc(Nc3ccc(N4CCS(=O)(=O)CC4)nc3)n2)s1 [Example 34, N-[6-(1,1-Dioxido-4-thiomorpholinyl)-3-pyridinyl]-4-{2-(ethylamino)-4-[3-methyl-5-(methyloxy)phenyl]-1,3-thiazol-5-yl}-2-pyrimidinamine]
< 100	> 1000	> 1000	< 500	< 500	< 500	< 500	< 500	CCNc1nc(-c2cc(C)cc(OC)c2)c(-c2ccnc(Nc3ccc(N4CCOCC4)nc3)n2)s1 [Example 35, 4-{2-(Ethylamino)-4-[3-methyl-5-(methyloxy)phenyl]-1,3-thiazol-5-yl}-N-[6-(4-morpholinyl)-3-pyridinyl]-2-pyrimidinamine]
	> 1000	> 1000	< 500	< 500		< 500		CCNc1nc(-c2cc(C)cc(OC)c2)c(-c2ccnc(Nc3ccc(N4CCN(C(C)=O)CC4)nc3)n2)o1 [Example 70, N-[6-(4-Acetyl-1-piperazinyl)-3-pyridinyl]-4-{2-(ethylamino)-4-[3-methyl-5-(methyloxy)phenyl]-1,3-oxazol-5-yl}-2-pyrimidinamine]
< 100	100 to 1000	100 to 1000			500 to 5000		500 to 5000	COc1cc(-c2nc(N3CCCC3)sc2-c2ccnc(Nc3ccc(OCCN4CCCC4)c(F)c3)n2)ccc1Cl [Example 78, 4-[4-[4-Chloro-3-(methyloxy)phenyl]-2-(1-pyrrolidinyl)-1,3-thiazol-5-yl]-N-(3-fluoro-4-{[2-(1-pyrrolidinyl)ethyl]oxy}phenyl)-2-pyrimidinamine]
< 100	> 1000	> 1000			500 to 5000		500 to 5000	COc1cc(C)cc(-c2nc(C(C)C)sc2-c2ccnc(Nc3ccc(N4CCN5CCCCC5C4)c(F)c3)n2)c1 (centres unmarked) [Example 113]
< 100			500 to 5000	500 to 5000	< 500	< 500	500 to 5000	CCNc1nc(-c2cc(C)cc(OC)c2)c(-c2ccnc(Nc3cc(OC)c(OC4CCN(CCS(C)(=O)=O)CC4)c(OC)c3)n2)o1 [Example 131]
< 100			500 to 5000	500 to 5000	< 500	500 to 5000	500 to 5000	CCNc1nc(-c2cc(OC)cc(OC)c2)c(-c2ccnc(Nc3cc(OC)c(OC4CCN(CCS(C)(=O)=O)CC4)c(OC)c3)n2)o1 [Example 133]
< 100	> 1000	> 1000			500 to 5000		> 5000	CCNc1nc(-c2cc(OC)cc(OC)c2)c(-c2ccnc(Nc3ccc(N4CCN5CCOC[C@H]5C4)nc3)n2)o1 [Example 135]
